Test results: patent US20220177508A1, “C10-Cyclic Substituted 13-Membered Macrolides and Uses Thereof” (Zikani Therapeutics, Inc., priority 2018, published 2022)
Values after ≈ are worked out from the molar mass of the structure shown.

Legend:
Format in all cases: cell-based
S. aureus MP-12 = experiment: Broth dilution MIC determination (CLSI), S. aureus MP-12; details: Staphylococcus aureus, MP12; strain MP-12, broth dilution
E. coli MP-4 = experiment: Broth dilution MIC determination (CLSI), E. coli MP-4; details: Escherichia coli, MP4; strain MP-4, broth dilution; read-out: MIC E. coli MP-4
K. pneumoniae MP-546 = experiment: Broth dilution MIC determination (CLSI), K. pneumoniae MP-546; details: Klebsiella pneumoniae, MP546; strain MP-546, broth dilution
P. aeruginosa MP-3 = experiment: Broth dilution MIC determination (CLSI), P. aeruginosa MP-3; details: Pseudomonas aeruginosa, MP3; strain MP-3, broth dilution
A. baumannii MP-15 = experiment: Broth dilution MIC determination (CLSI), A. baumannii MP-15; details: Acinetobacter baumannii, MP15; strain MP-15, broth dilution; read-out: MIC A. baumanii MP-15

Row | Structure (SMILES) | MIC (S. aureus MP-12) [µg/mL] | MIC (E. coli MP-4) [µg/mL] | MIC (K. pneumoniae MP-546) [µg/mL] | MIC (P. aeruginosa MP-3) [µg/mL] | MIC (A. baumannii MP-15) [µg/mL]
1 | CNCC(=O)N1C2CCC1CC([C@@H]1COC(=O)C(C)(C)C(=O)[C@H](C)[C@@H](O[C@@H]3O[C@H](C)C[C@H](N(C)C)[C@H]3O)[C@](C)(OC)C[C@@H](C)CN1C)C2 (stereo partly drawn) [Compound 44, (3R,6R,8R,9R,10R)-9-(((2S,3R,4S,6R)-4-(dimethylamino)-3-hydroxy-6-methyltetrahydro-2H-pyran-2-yl)oxy)-8-methoxy-4,6,8,10,12,12-hexamethyl-3-(8-(methylglycyl)-8-azabicyclo[3.2.1]octan-3-yl)-1-oxa-4-azacyclotridecane-11,13-dione] | > 32 | 4 to 32 (≈ 5.87 to 47 µM) | > 32 | > 32 | > 32
2 | CO[C@]1(C)C[C@@H](C)CN(C)[C@H](C2CN(CC(=O)N3CCCC3)C2)COC(=O)C(C)(C)C(=O)[C@H](C)[C@H]1O[C@@H]1O[C@H](C)C[C@H](N(C)C)[C@H]1O [Compound 45, (3R,6R,8R,9R,10R)-9-(((2S,3R,4S,6R)-4-(dimethylamino)-3-hydroxy-6-methyltetrahydro-2H-pyran-2-yl)oxy)-8-methoxy-4,6,8,10,12,12-hexamethyl-3-(1-(2-oxo-2-(pyrrolidin-1-yl)ethyl)azetidin-3-yl)-1-oxa-4-azacyclotridecane-11,13-dione] | 4 to 32 (≈ 6 to 48 µM) | < 4 | 4 to 32 (≈ 6 to 48 µM) | > 32 | > 32
3 | CO[C@]1(C)C[C@@H](C)CN(C)[C@H]([C@@H]2CCN(C(C)C)C2)COC(=O)C(C)(C)C(=O)[C@H](C)[C@H]1O[C@@H]1O[C@H](C)C[C@H](N(C)C)[C@H]1O [Compound 46, (3R,6R,8R,9R,10R)-9-(((2S,3R,4S,6R)-4-(Dimethylamino)-3-hydroxy-6-methyltetrahydro-2H-pyran-2-yl)oxy)-3-((R)-1-isopropylpyrrolidin-3-yl)-8-methoxy-4,6,8,10,12,12-hexamethyl-1-oxa-4-azacyclotridecane-11,13-dione] | > 32 | < 4 | 4 to 32 (≈ 6.54 to 52.3 µM) | > 32 | > 32
4 | CO[C@]1(C)C[C@@H](C)CN(C)[C@H](C2CCNCC2)[C@H](C)OC(=O)C(C)(C)C(=O)[C@H](C)[C@H]1O[C@@H]1O[C@H](C)C[C@H](N(C)C)[C@H]1O [Compound 47, (2S,3R,6R,8R,9R,10R)-9-(((2S,3R,4S,6R)-4-(dimethylamino)-3-hydroxy-6-methyltetrahydro-2H-pyran-2-yl)oxy)-8-methoxy-2,4,6,8,10,12,12-heptamethyl-3-(piperidin-4-yl)-1-oxa-4-azacyclotridecane-11,13-dione] | > 32 | 4 to 32 (≈ 6.69 to 53.5 µM) | > 32 | > 32 | > 32
5 | CO[C@]1(C)C[C@@H](C)CN(C)[C@@H]([C@H]2CCN(C)C2)COC(=O)C(C)(C)C(=O)[C@H](C)[C@H]1O[C@@H]1O[C@H](C)C[C@H](N(C)C)[C@H]1O [Compound 48, (3S,6R,8R,9R,10R)-9-(((2S,3R,4S,6R)-4-(Dimethylamino)-3-hydroxy-6-methyltetrahydro-2H-pyran-2-yl)oxy)-8-methoxy-4,6,8,10,12,12-hexamethyl-3-((S)-1-methylpyrrolidin-3-yl)-1-oxa-4-azacyclotridecane-11,13-dione] | 4 to 32 (≈ 6.85 to 54.8 µM) | < 4 | < 4 | > 32 | > 32
6 | CO[C@]1(C)C[C@@H](C)CN(C)[C@@H](C2CN(C(=O)[C@@H](C)N(C)C)C2)COC(=O)C(C)(C)C(=O)[C@H](C)[C@H]1O[C@@H]1O[C@H](C)C[C@H](N(C)C)[C@H]1O [Compound 52, (3S,6R,8R,9R,10R)-3-(1-(dimethyl-D-alanyl)azetidin-3-yl)-9-(((2S,3R,4S,6R)-4-(dimethylamino)-3-hydroxy-6-methyltetrahydro-2H-pyran-2-yl)oxy)-8-methoxy-4,6,8,10,12,12-hexamethyl-1-oxa-4-azacyclotridecane-11,13-dione] | > 32 | < 4 | 4 to 32 (≈ 6.11 to 48.9 µM) | > 32 | > 32
7 | CO[C@]1(C)C[C@@H](C)CN(C)[C@@H]([C@@H]2CCCNC2)COC(=O)C(C)(C)C(=O)[C@H](C)[C@H]1O[C@@H]1O[C@H](C)C[C@H](N(C)C)[C@H]1O [Compound 53] | 4 to 32 (≈ 6.85 to 54.8 µM) | < 4 | < 4 | > 32 | > 32
8 | CO[C@]1(C)C[C@@H](C)CN(C)[C@@H]([C@H]2CCCN(C(C)C)C2)COC(=O)C(C)(C)C(=O)[C@H](C)[C@H]1O[C@@H]1O[C@H](C)C[C@H](N(C)C)[C@H]1O [Compound 56, (3S,6R,8R,9R,10R)-9-(((2S,3R,4S,6R)-4-(dimethylamino)-3-hydroxy-6-methyltetrahydro-2H-pyran-2-yl)oxy)-3-((S)-1-isopropylpiperidin-3-yl)-8-methoxy-4,6,8,10,12,12-hexamethyl-1-oxa-4-azacyclotridecane-11,13-dione] | > 32 | > 32 | > 32 | > 32 | > 32
9 | CO[C@]1(C)C[C@@H](C)CN(C)[C@@H]([C@H]2CCN(C(C)C)C2)COC(=O)C(C)(C)C(=O)[C@H](C)[C@H]1O[C@@H]1O[C@H](C)C[C@H](N(C)C)[C@H]1O [Compound 57, (3S,6R,8R,9R,10R)-9-(((2S,3R,4S,6R)-4-(Dimethylamino)-3-hydroxy-6-methyltetrahydro-2H-pyran-2-yl)oxy)-3-((S)-1-isopropylpyrrolidin-3-yl)-8-methoxy-4,6,8,10,12,12-hexamethyl-1-oxa-4-azacyclotridecane-11,13-dione] | 4 to 32 (≈ 6.54 to 52.3 µM) | < 4 | 4 to 32 (≈ 6.54 to 52.3 µM) | > 32 | > 32
10 | CO[C@]1(C)C[C@@H](C)CN(C)[C@H](C2CCN(CC(F)F)CC2)COC(=O)C(C)(C)C(=O)[C@H](C)[C@H]1O[C@@H]1O[C@H](C)C[C@H](N(C)C)[C@H]1O [Compound 62, (3R,6R,8R,9R,10R)-3-(1-(2,2-difluoroethyl)piperidin-4-yl)-9-(((2S,3R,4S,6R)-4-(dimethylamino)-3-hydroxy-6-methyltetrahydro-2H-pyran-2-yl)oxy)-8-methoxy-4,6,8,10,12,12-hexamethyl-1-oxa-4-azacyclotridecane-11,13-dione] | 4 to 32 (≈ 6.17 to 49.4 µM) | < 4 | 4 to 32 (≈ 6.17 to 49.4 µM) | > 32 | > 32
11 | CCCN1CCC([C@H]2COC(=O)C(C)(C)C(=O)[C@H](C)[C@@H](O[C@@H]3O[C@H](C)C[C@H](N(C)C)[C@H]3O)[C@](C)(OC)C[C@@H](C)CN2C)CC1 [Compound 63, (3S,6R,8R,9R,10R)-9-(((2S,3R,4S,6R)-4-(dimethylamino)-3-hydroxy-6-methyltetrahydro-2H-pyran-2-yl)oxy)-8-methoxy-4,6,8,10,12,12-hexamethyl-3-(1-propylpiperidin-4-yl)-1-oxa-4-azacyclotridecane-11,13-dione] | 4 to 32 (≈ 6.39 to 51.1 µM) | < 4 | < 4 | > 32 | > 32
12 | CO[C@]1(C)C[C@@H](C)CN(C)[C@@H](C2CCN(C)CC2)COC(=O)C(C)(C)C(=O)[C@H](C)[C@H]1O[C@@H]1O[C@H](C)C[C@H](N(C)C)[C@H]1O [Compound 64, (3S,6R,8R,9R,10R)-9-(((2S,3R,4S,6R)-4-(dimethylamino)-3-hydroxy-6-methyltetrahydro-2H-pyran-2-yl)oxy)-8-methoxy-4,6,8,10,12,12-hexamethyl-3-(1-methylpiperidin-4-yl)-1-oxa-4-azacyclotridecane-11,13-dione] | 4 to 32 (≈ 6.69 to 53.5 µM) | < 4 | < 4 | > 32 | > 32
13 | CO[C@]1(C)C[C@@H](C)CN(C)[C@H]([C@@H]2CCCN2)COC(=O)C(C)(C)C(=O)[C@H](C)[C@H]1O[C@@H]1O[C@H](C)C[C@H](N(C)C)[C@H]1O [Compound 65, (3R,6R,8R,9R,10R)-9-(((2S,3R,4S,6R)-4-(dimethylamino)-3-hydroxy-6-methyltetrahydro-2H-pyran-2-yl)oxy)-8-methoxy-4,6,8,10,12,12-hexamethyl-3-((S)-pyrrolidin-2-yl)-1-oxa-4-azacyclotridecane-11,13-dione] | > 32 | 4 to 32 (≈ 7.02 to 56.2 µM) | > 32 | > 32 | > 32
14 | CO[C@]1(C)C[C@@H](C)CN(C)[C@H](C2CCN(C(=O)CNCC(C)C)CC2)COC(=O)C(C)(C)C(=O)[C@H](C)[C@H]1O[C@@H]1O[C@H](C)C[C@H](N(C)C)[C@H]1O [Compound 66, (3R,6R,8R,9R,10R)-9-(((2S,3R,4S,6R)-4-(dimethylamino)-3-hydroxy-6-methyltetrahydro-2H-pyran-2-yl)oxy)-3-(1-(isobutylglycyl)piperidin-4-yl)-8-methoxy-4,6,8,10,12,12-hexamethyl-1-oxa-4-azacyclotridecane-11,13-dione] | > 32 | < 4 | 4 to 32 (≈ 5.74 to 45.9 µM) | > 32 | > 32
15 | CO[C@]1(C)C[C@@H](C)CN(C)[C@@H]([C@H]2CCN(C(=O)CN(C)C)C2)COC(=O)C(C)(C)C(=O)[C@H](C)[C@H]1O[C@@H]1O[C@H](C)C[C@H](N(C)C)[C@H]1O [Compound 67, (3S,6R,8R,9R,10R)-9-(((2S,3R,4S,6R)-4-(dimethylamino)-3-hydroxy-6-methyltetrahydro-2H-pyran-2-yl)oxy)-3-((S)-1-(dimethylglycyl)pyrrolidin-3-yl)-8-methoxy-4,6,8,10,12,12-hexamethyl-1-oxa-4-azacyclotridecane-11,13-dione] | > 32 | < 4 | 4 to 32 (≈ 6.11 to 48.9 µM) | > 32 | > 32
